pIC50: −log10 of the molar value. Values after ≈ are worked out from the molar mass of the structure shown. Values joined by “and” are separate entries in the source; they are usually repeats but may differ in a detail not shown here. Equal entries are not always repeated.
Assays:
[1] = Solubility in phosphate buffer; format: physicochemical; conditions: pH 7.4, aqueous buffer
From the text: TABLE 1 In vitro potency and selectivity of JAK inhibitors | column: Solubility (μM) ^c

[2] = system: Human Peripheral Blood Mononuclear Cells (PBMCs); experiment: Cytokine release from anti-CD3-stimulated human PBMCs; format: cell-based; conditions: during stimulation with anti‐CD3, 40–48 h
Experimental: Human Peripheral Blood Mononuclear Cells (PBMCs) were isolated by Sepmate technique (Stemcell Technologies) from heparinized venous blood from healthy volunteers. Primary human CD8^+ T‐cells were further isolated using a CD8^+ T cell Isolation Kit according to protocol (Miltenyi Biotec). Experiments were approved by the local ethical committee in Gothenburg (033‐11).
Soluble anti‐CD28 were added to the CD8^+ cultures to facilitate co‐stimulation. After 40–48 h, supernatants were harvested for mediator analysis and the cells were washed and resuspended in RLT buffer (Qiagen) for RNA isolation.
Analysis of human cytokine panels was carried out using a Luminex assay kit from Merck Millipore (Cat# HCYTMAG‐60K‐PX41) and Mesoscale Discovery (MSD) immunoassay kits (Cat# K211AEB‐2 and K15049D) as recommended in the respective supplier protocols.

AA mice = system: AA mice; parameters: method as in PMID 25129481; conditions: 12 weeks of treatment, 3 months follow up; cited from earlier work
[3] = Plasma and skin exposure in treated AA mice; conditions: 3% cream topically, one hour after application
IL‐4, STAT6‐Luc = experiment: IL-4-induced JAK-STAT6-luciferase assay in U937 monocytes; format: cell-based; conditions: Homo sapiens, U-937, interleukin at EC80
IL‐13, STAT6‐Luc = experiment: IL-13-induced JAK-STAT6-luciferase assay in U937 monocytes; format: cell-based; conditions: Homo sapiens, U-937, interleukin at EC80

Compound | solubility [1] | release of IL‐1RA from PBMCs [2] | remission after treatment (AA mice) | unbound plasma exposure over IC50 [3] | pIC50 (IL‐4, STAT6‐Luc) | pIC50 (IL‐13, STAT6‐Luc)
C[C@@H]1CCN(C(=O)CC#N)C[C@@H]1N(C)c1ncnc2[nH]ccc12 [Tofacitinib, reference compound] | > 1000 µM | dramatically increased | induced stable remission | 3–7 fold IC50 and 5 fold IC50 |  | 
N#CC[C@H](C1CCCC1)n1cc(-c2ncnc3[nH]ccc23)cn1 [Ruxolitinib, reference compound] | 678 µM (≈ 208 µg/mL) | dramatically increased | induced stable remission |  | 6.96 | 7.09
